One may read the IC50 as the concentration needed to halve the response being measured. As a reminder, the bioavailability is the share of a dose that reaches the circulation, judged against a reference dose that is usually intravenous. As usually defined, the AUC(0-inf) is the area under the concentration-time curve extrapolated to infinity. One may read the Cmax as the highest concentration seen after dosing. A word on the Tmax: it is the time from dosing to the highest level.

Here are results for 2 compounds from article PMC5882164, “A novel calcimimetic agent, evocalcet (MT-4580/KHK7580), suppresses the parathyroid cell function with little effect on the gastrointestinal tract or CYP isozymes in vivo and in vitro” (PLoS ONE, 2018).

Counter-ions that a name gives are not always drawn. Like-named read-outs stand apart in the source and are kept apart here.

The test system of data set [1] is emesis. The settings on record: common marmoset, in vivo, 4 h. As to the method: The study of effect of evocalcet on emesis in common marmoset was performed by referencing a previously reported method. The marmosets (n = 24) used for this study were housed in cages (460 × 600 × 655 mm) with environmental enrichments (wooden perches, swing, and balls) and acclimated for at least 4 weeks. The marmosets were fasted from evening on the day before administration. To confirm the reduction in the serum PTH levels, blood samples (about 300~400 μL, 1.2∼1.6% of total blood volume) were collected from the femoral or saphenous vein without an anesthesia before and at 1 and 4 h after the oral administration of evocalcet (1.5 or 5 μg/kg, n = 3 in each dose) or cinacalcet (300 or 500 μg/kg, n = 3 in each dose) suspended in 0.5% methyl cellulose solution using a metallic gastric zonde. The serum PTH level was measured using a Porcine Intact PTH ELISA kit (Immutopics, Inc., San Clemente, CA, USA). To evaluate the emetic effects in marmosets, evocalcet (50 or 150 μg/kg) or cinacalcet (1500 or 5000 μg/kg) was orally administered (n = 6/drug, dose down titration, n = 12 in total). The observation of emesis was conducted until 4 h after the administration.

Data set [2] deals with T1, CYP2C8 (Homo sapiens, UniProt P10632).
T1 construct: from tissue; host or cells: human liver microsomes
T1 sequence (P10632 1-490): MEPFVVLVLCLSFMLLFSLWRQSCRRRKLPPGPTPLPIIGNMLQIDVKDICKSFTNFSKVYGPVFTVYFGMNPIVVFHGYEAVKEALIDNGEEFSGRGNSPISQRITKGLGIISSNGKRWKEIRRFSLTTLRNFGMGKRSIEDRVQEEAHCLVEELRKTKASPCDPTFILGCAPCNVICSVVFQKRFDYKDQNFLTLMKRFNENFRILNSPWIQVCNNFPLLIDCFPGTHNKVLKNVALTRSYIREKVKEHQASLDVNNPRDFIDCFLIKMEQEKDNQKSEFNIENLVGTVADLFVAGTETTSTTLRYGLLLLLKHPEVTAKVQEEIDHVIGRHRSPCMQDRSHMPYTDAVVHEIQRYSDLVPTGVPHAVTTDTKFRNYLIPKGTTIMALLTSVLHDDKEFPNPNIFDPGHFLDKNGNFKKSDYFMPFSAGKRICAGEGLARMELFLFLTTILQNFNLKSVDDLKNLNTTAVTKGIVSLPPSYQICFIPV
Nature of the data set: CYP inhibition assay in human liver microsomes. The following applies: no pre-incubation, read-out: IC50 direct inhibition of CYP2C8. In kind it is in vitro ADME. How it is done: (§1) The direct inhibition of evocalcet (0.15~50 μM, 6-point concentrations) against the specific activities of 9 CYP isozymes (CYP1A2, CYP2A6, CYP2B6, CYP2C8, CYP2C9, CYP2C19, CYP2D6, CYP2E1, and CYP3A4/5) was examined in human liver microsomes without the pre-incubation of evocalcet, in the presence of the NADPH-generating system. Each CYP substrate was incubated with human liver microsomes in the absence or presence of evocalcet, and the inhibition of evocalcet for each CYP isozyme was measured.
(Microsomes from liver hold many membrane-bound enzymes, among them those of drug oxidation.)

For data set [3], the target named is T2, CYP2B6 (Homo sapiens, UniProt P20813).
T2 construct: from tissue; host or cells: human liver microsomes
T2 sequence (P20813 1-491): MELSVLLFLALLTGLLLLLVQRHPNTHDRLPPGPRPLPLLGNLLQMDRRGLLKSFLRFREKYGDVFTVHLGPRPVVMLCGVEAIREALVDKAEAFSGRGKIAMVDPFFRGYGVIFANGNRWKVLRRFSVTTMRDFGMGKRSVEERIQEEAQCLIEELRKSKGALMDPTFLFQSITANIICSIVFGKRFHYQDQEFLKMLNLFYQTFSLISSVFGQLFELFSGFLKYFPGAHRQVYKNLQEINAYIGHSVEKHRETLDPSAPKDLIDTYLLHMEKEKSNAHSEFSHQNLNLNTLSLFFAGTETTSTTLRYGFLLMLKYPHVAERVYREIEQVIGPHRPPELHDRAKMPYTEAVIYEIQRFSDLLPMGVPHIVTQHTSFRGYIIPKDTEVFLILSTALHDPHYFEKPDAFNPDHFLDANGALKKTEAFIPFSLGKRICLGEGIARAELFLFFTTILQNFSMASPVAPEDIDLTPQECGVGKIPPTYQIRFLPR
In words: CYP inhibition assay in human liver microsomes. In kind it is in vitro ADME. The following applies: no pre-incubation, read-out: IC50 direct inhibition of CYP2B6. As to the method: as §1

For data set [4], the target named is T3, CYP2A6 (Homo sapiens, UniProt P11509).
T3 construct: from tissue; host or cells: human liver microsomes
T3 sequence (P11509 1-494): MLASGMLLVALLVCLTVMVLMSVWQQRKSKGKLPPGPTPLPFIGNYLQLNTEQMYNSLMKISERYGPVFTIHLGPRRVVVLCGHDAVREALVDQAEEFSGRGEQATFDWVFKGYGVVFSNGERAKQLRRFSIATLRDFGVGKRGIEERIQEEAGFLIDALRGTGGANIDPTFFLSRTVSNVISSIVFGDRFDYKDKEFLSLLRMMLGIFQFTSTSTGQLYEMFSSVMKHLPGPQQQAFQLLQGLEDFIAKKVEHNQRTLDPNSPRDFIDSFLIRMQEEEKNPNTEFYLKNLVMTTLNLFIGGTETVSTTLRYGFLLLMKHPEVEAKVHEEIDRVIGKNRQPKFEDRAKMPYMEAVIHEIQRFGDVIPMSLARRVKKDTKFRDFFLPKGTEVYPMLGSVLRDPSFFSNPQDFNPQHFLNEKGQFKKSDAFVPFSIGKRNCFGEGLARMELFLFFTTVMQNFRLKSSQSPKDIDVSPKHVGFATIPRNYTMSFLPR
Nature of the data set: CYP inhibition assay in human liver microsomes. The following applies: no pre-incubation, read-out: IC50 direct inhibition of CYP2A6. It counts as in vitro ADME. How it is done:
as §1

Data set [5] is described as follows: Pharmacokinetics of evocalcet after oral administration to male rats. The settings on record: rat, in vivo; for AUC(0-inf): AUC0-∞. As to the method: The plasma concentrations of evocalcet were determined after single or repeated oral administration in both normal and 5/6 Nx rats. The pharmacokinetic (PK) parameters of the rat plasma concentrations were calculated individually using Phoenix WinNonlin 6.2, a PK analysis software program (Pharsight Corporation, Sunnyvale, CA).

With `C[C@@H](NCCCc1cccc(C(F)(F)F)c1)c1cccc2ccccc12` [cinacalcet, Cinacalcet hydrochloride, reference compound], in data set [1], the Safety margin was 3 < X < 10.

On to `C[C@@H](N[C@H]1CCN(c2ccc(CC(=O)O)cc2)C1)c1cccc2ccccc12` [evocalcet], for which the IC50 in data set [2], in data set [3] and in data set [4] was over 50 µM throughout. Further, the bioavailability in data set [5] (Sprague-Dawley, Bioavailability) is over 80%; in data set [5] (Sprague-Dawley, po, 0.1 mg/kg, F (bioavailability)), 81.6%; in data set [5] (Sprague-Dawley, po, 0.3 mg/kg, F (bioavailability)) it was 85.6%; in data set [5] (Sprague-Dawley, po, 1 mg/kg, F (bioavailability)), 84.2%. Also, the AUC(0-inf) in data set [5] (Sprague-Dawley, po, 0.1 mg/kg) is 819 ng·h/mL; in data set [5] (Sprague-Dawley, po, 0.3 mg/kg) it was 2580 ng·h/mL; in data set [5] (Sprague-Dawley, po, 1 mg/kg), 8440 ng·h/mL; in data set [5] (po, 0.1 mg/kg) it was 981 ng·h/mL; in data set [5] (po, 0.3 mg/kg), 2260 ng·h/mL; in data set [5] (po, 1 mg/kg), 7890 ng·h/mL. For the same compound, the Cmax is 222 ng/mL in data set [5] (Sprague-Dawley, po, 0.1 mg/kg); 600 ng/mL in data set [5] (Sprague-Dawley, po, 0.3 mg/kg); 2190 ng/mL in data set [5] (Sprague-Dawley, po, 1 mg/kg); 221 ng/mL in data set [5] (po, 0.1 mg/kg); 570 ng/mL in data set [5] (po, 0.3 mg/kg); 1810 ng/mL in data set [5] (po, 1 mg/kg). Further, the half-life in data set [5] (Sprague-Dawley, po, 0.1 mg/kg, t1/2) was 6.66 h; in data set [5] (Sprague-Dawley, po, 0.3 mg/kg, t1/2), 5.77 h; in data set [5] (normal rats, single oral dose 1 mg/kg, mean, read-out: t1/2 (converted)) it was 6.13 h; in data set [5] (po, 0.1 mg/kg, t1/2), 5.71 h; in data set [5] (po, 0.3 mg/kg, t1/2), 5.68 h; in data set [5] (po, 1 mg/kg, t1/2) it was 6.99 h. Also, the time of peak concentration (Tmax) in data set [5] (Sprague-Dawley, po, 0.1 mg/kg, tmax) was 0.25 h; in data set [5] (Sprague-Dawley, po, 0.3 mg/kg, tmax) it was 0.38 h; in data set [5] (Sprague-Dawley, po, 1 mg/kg, tmax) it was 0.81 h; in data set [5] (po, 0.1 mg/kg, tmax), 0.25 h; in data set [5] (po, 0.3 mg/kg), 0.50 h; in data set [5] (po, 0.3 mg/kg, tmax), 0.25 h. Also, the Tmax in data set [5] (po, 1 mg/kg) was 1.00 h. Also, the t1/2 in data set [5] (Sprague-Dawley, po, 1 mg/kg) is given as 6.13 h.
